Data on eleven compounds can be found in US11590139B2, “Substituted aminopurine compounds, compositions thereof, and methods of treatment therewith” (Signal Pharmaceuticals, LLC, priority 2014, dated 2023).

The first assay deals with Lox-IMVI melanoma cell line. Put plainly: Lox-IMVI anti-proliferative assay (growth inhibition, Cell Titer-Glo). As to conditions: Homo sapiens; IC50 activity level in the cell-based Lox-IMVI anti-proliferative assay; read-out: Activity. It is filed as cell-based, human. In short, it runs like this: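 Viability read by ATP luminescence (Cell Titer-Glo) at t0 and after 72 h at 37 °C, 5% CO2, with normalisation to DMSO-treated cells. Compound tested at 0.5 nM–10 μM in 3-fold, 10-point series (0.2% DMSO final) on Lox-IMVI in RPMI+10% FBS; IC50 by 4-parameter sigmoidal fit.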
For orientation: ATP-based viability assays read luminescence as a measure of living cells.
`CC[C@H](C)Nc1ncc2nc(Nc3c(F)cccc3Cl)n([C@H]3CC[C@@H](C(N)=O)CC3)c2n1` [Example 337, (1R,4s)-4-(2-(sec-butylamino)-8-(2-chloro-6-fluorophenylamino)-9H-purin-9-yl)cyclohexanecarboxamide]: the IC50 was more than 1000 nM.

As to `C[C@@H](CO)Nc1ncc2nc(Nc3c(Cl)cccc3Cl)n([C@H]3CC[C@@H](C(N)=O)CC3)c2n1` [Example 168, (1R,4s)-4-(8-(2,6-dichlorophenylamino)-2-((S)-1 hydroxypropan-2-ylamino)-9H-purin-9-yl)cyclohexanecarboxamide], the IC50 is more than 1000 nM. Same read-out and setting: with `NC(=O)[C@H]1CC[C@@H](n2c(Nc3c(F)cc(Cl)cc3Cl)nc3cnc(N[C@@H]4CCOC4)nc32)CC1` [Example 223, (1S,4s)-4-(8-(2,4-dichloro-6-fluorophenylamino)-2-((R)-tetrahydrofuran-3-ylamino)-9H-purin-9-yl)cyclohexanecarboxamide] the figure was 250 to 500 nM; with `NC(=O)[C@H]1CC[C@@H](n2c(Nc3c(Cl)cc(Cl)cc3Cl)nc3cnc(N[C@H]4C[C@@H](O)C4)nc32)CC1` [Example 323, (1s,4s)-4-(2-((1s,3s)-3-hydroxycyclobutylamino)-8-(2,4,6-trichlorophenylamino)-9H-purin-9-yl)cyclohexanecarboxamide], more than 1000 nM. Still for that read-out and setting: as for `NC(=O)[C@H]1CC[C@@H](n2c(Nc3c(Cl)cc(Cl)cc3Cl)nc3cnc(N[C@@H]4CCC[C@H]4O)nc32)CC1` [Example 254, (1S,4s)-4-(2-((1R,2R)-2-hydroxycyclopentylamino)-8-(2,4,6-trichlorophenylamino)-9H-purin-9-yl)cyclohexanecarboxamide], the figure is 500 to 1000 nM; as for `Cc1cc(Cl)c(Nc2nc3cnc(NC4CCOCC4)nc3n2[C@H]2CC[C@@H](C(N)=O)CC2)cc1Cl` [Example 80, (1s,4s)-4-(8-(2,5-dichloro-4-methylphenylamino)-2-(tetrahydro-2H-pyran-4-ylamino)-9H-purin-9-yl)cyclohexanecarboxamide], 500 to 1000 nM.

The same assay, now with this note: Homo sapiens; Lox-IMVI anti-proliferative assay, IC50 activity level; read-out: Activity.
With `NC(=O)[C@H]1CC[C@@H](n2c(Nc3c(Cl)cc(Cl)cc3Cl)nc3cnc(NCC(F)(F)CO)nc32)CC1` [Example 450, (1s,4s)-4-(2-(2,2-difluoro-3-hydroxypropylamino)-8-(2,4,6-trichlorophenylamino)-9H-purin-9-yl)cyclohexanecarboxamide], the IC50 was more than 1000 nM. Still for that read-out and setting: as for `NC(=O)[C@H]1CC[C@@H](n2c(Nc3c(F)cc(Cl)cc3F)nc3cnc(N[C@@H]4CCO[C@H](CO)C4)nc32)CC1` [Example 445, (1S,4s)-4-(8-(4-chloro-2,6-difluorophenylamino)-2-((2S,4R)-2-(hydroxymethyl)tetrahydro-2H-pyran-4-ylamino)-9H-purin-9-yl)cyclohexanecarboxamide], the figure is 250 to 500 nM.

On to `N#Cc1cc(Cl)c(Nc2nc3cnc(NC4CCCOCC4)nc3n2[C@H]2CC[C@@H](C(N)=O)CC2)c(Cl)c1` (some centres unmarked) [Example 555, (1s,4s)-4-(8-(2,6-dichloro-4-cyanophenylamino)-2-(oxepan-4-ylamino)-9H-purin-9-yl)cyclohexanecarboxamide], for which the IC50 is less than 250 nM.

Regarding `C[C@]1(C(N)=O)CC[C@@H](n2c(Nc3c(F)cc(Cl)cc3F)nc3cnc(NC4CC(F)(F)C4)nc32)CC1` [Example 581, (1s,4s)-4-(8-(4-chloro-2,6-difluorophenylamino)-2-(3,3-difluorocyclobutylamino)-9H-purin-9-yl)-1-methylcyclohexanecarboxamide], the IC50 is less than 250 nM.

The same assay, now with this note: Homo sapiens; Lox-IMVI melanoma cell line, anti-proliferative assay; read-out: Activity (IC50 activity level).
Turning to `C[C@]1(C(N)=O)CC[C@@H](n2c(Nc3c(F)cc(C#N)cc3F)nc3cnc(NC4CCC4)nc32)CC1` [Example 601, (1s,4s)-4-(8-(4-cyano-2,6-difluorophenylamino)-2-(cyclobutylamino)-9H-purin-9-yl)-1-methylcyclohexanecarboxamide], the IC50 is less than 250 nM.
